Experimental data from US20160338966A1, “Multimicroparticulate pharmaceutical forms foe oral administration” (FLAMEL IRELAND LIMITED, priority 2006, published 2016).

Test: behavior of agents D in water and in ethanol/water solution 40/60 v/v
Assay type: physicochemical
Excerpt: Different compounds D are introduced into ajar containing either water (on the left in the Figures) or an ethanol/water solution in a ratio of 40/60 v/v (right jar in the Figures).

| Substance | solubilization rate in water versus water/ethanol mixture | solubility in water and in ethanol/water |
| --- | --- | --- |
| hydroxypropyl methyl cellulose [hypromellose] | higher in water than in the water/ethanol mixture | – |
| guar gum | – | soluble in water but not in the water/ethanol mixture |
